The text below walks through data of patent US12715850B2, “Low toxicity NMP substitutes and uses thereof” (Advancion Corporation, priority 2020, dated 2026).

A short description of data set [1]: Solubility of the product in water and mineral oil. Format: physicochemical. How it is done:
The resulting nitro amidef was added to a 2 L Parr reactor along with 300 g methanol and 30 g of damp Raney® nickel. The reactor was purged with hydrogen. The reagents were stirred and reacted at 65° C. and 750 psig hydrogen. In a separate vessel, a blend of 400 g (2.13 mol) of nitroamide (prepared in previous example) and 431 g (5.31 mol) of formaldehyde (37% aqueous, Fisher Scientific) was prepared. The nitroamide/formaldehyde mixture was added to the reactor under stirring while maintaining 65° C. Followed by flushing with 50 g (0.62 mol) of 37% aqueous formaldehyde. The reactor contents were held at 65° C. for 2 hours followed by cooling to 25° C. The reactor was vented and the catalyst filtered off the product. After rinsing the catalyst with methanol (2×20 mL), the filtrate was concentrate under vacuum. The product was isolated and purified using vacuum distillation to provide a pale yellow liquid recovered in 75% yield from DMAA having purity >99% by GC-FID. The boiling point was determined to be 170° C. at 40 mmHg, 145° C. at 15 mmHg, and 137° C. at 10 mmHg. ^1H NMR (400 MHz, D2O): d=2.95 (s, 3H), 2.88 (s, 3H), 2.24 (m, 2H), 2.05 (s, 6H), 1.54 (m, 2H), 0.91 (s, 6H).

For data set [2] the following is noted: following inhalation, oral and dermal exposure in humans and animals; cited from earlier work.
In another data set the test system is experimental animals. The conditions noted are these: high levels over short time by inhalation, dermal exposure, and ingestion; cited from earlier work.
Data set [3] has as its system animals. Conditions: animals ingested NMP repeatedly at lower levels; cited from earlier work.
In data set [4] the test system is animals. The conditions noted are these: long-term oral exposures in animals; cited from earlier work.
For data set [5] the following is noted: oral reproduction toxicity study; at doses lower than those that caused maternal toxicity; cited from earlier work.

With `CN(C)C(=O)CCC(C)(C)N(C)C` [Example 3, 4-(dimethylamino)-N,N-4-trimethylpentamide], the “solubility in mineral oil” value in data set [1] (mineral oil) is on record as “soluble”. The solubility in water entry in data set [1] (water) is “soluble”.
For `CN1CCCC1=O` [NMP, N-methyl-2-pyrrolidone], in data set [2], the absorption entry is on record as “well absorbed”. Further, the toxicity result in the data set on experimental animals is recorded as “low toxicity”. The adverse effects result with animals [3] is “changes in body weight, liver weight, neurotoxicity, and thymus atrophy”. The “effects of long-term oral exposures” value in the data set on animals [4] is “increased incidence of large kidneys, kidneys diagnosed with chronic problems, fluid in the pleural cavity and small testes”. The developmental toxicity entry in data set [5] is “decrease in fetal weight and malformations”.
